The target in one test is JAK2 (Homo sapiens, UniProt O60674). Kind of test: in vitro JAK2 kinase activity test, Mobility Shift Assay. The following applies: compound concentration 0.1 μM; read-out: Percentage of inhibition against JAK2 at 0.1 μM. Format: biochemical. The method, then:
The in vitro JAK2 and FLT3 kinase activity test was performed on the compounds of the 2-aminopyrimidine backbone of the above formula I (concentration 0.1 μM) according to the present invention using Mobility Shift Assay. The control compounds Pacritinib and Fedratinib were prepared by our research group.
(§1) The kinase buffer was composed of 50 mM HEPEs (pH 7.5) and 0.0015% BRIJ-35. The stop buffer contained a mixture of 100 mM HEPES (pH 7.5), 0.015% BRIJ-35, 0.2% coating reagent #3 and 50 mM EDTA. The compound to be tested was diluted with 100% DMSO to 50 times the highest concentration required in the reaction. The dilution of compound to be tested (100 μL) was transferred to the wells of a 96-well plate. […] was added to two wells of the plate as a control group and the plate was marked as the source plate. 10 μL of compound was transferred from the source plate to a new 96-well plate to prepare an intermediate plate. In the intermediate plate, an additional 90 μL of kinase buffer was added to each well. The intermediate plate was shaken for 10 minutes, and then 5 μL of each well of the 96-well intermediate plate was copied to a 384-well plate as an analysis plate. The prepared enzyme solution was added to each well of the 384-well plate, then incubated at room temperature for 10 minutes, and then 10 μL of the prepared peptide solution (FAM-labeled peptide and ATP in kinase-based buffer) was added. The sample was incubated at 28° C. for 1 hours, and then 25 μL of buffer was added. The conversion data from the Caliper program was copied and converted to the inhibition rate.
(§2) Inhibition rate (%)=(max−conversion)/(max−min)×100.

Another test deals with T1, FLT3 (Homo sapiens, UniProt P36888).
T1 sequence (P36888 27-993): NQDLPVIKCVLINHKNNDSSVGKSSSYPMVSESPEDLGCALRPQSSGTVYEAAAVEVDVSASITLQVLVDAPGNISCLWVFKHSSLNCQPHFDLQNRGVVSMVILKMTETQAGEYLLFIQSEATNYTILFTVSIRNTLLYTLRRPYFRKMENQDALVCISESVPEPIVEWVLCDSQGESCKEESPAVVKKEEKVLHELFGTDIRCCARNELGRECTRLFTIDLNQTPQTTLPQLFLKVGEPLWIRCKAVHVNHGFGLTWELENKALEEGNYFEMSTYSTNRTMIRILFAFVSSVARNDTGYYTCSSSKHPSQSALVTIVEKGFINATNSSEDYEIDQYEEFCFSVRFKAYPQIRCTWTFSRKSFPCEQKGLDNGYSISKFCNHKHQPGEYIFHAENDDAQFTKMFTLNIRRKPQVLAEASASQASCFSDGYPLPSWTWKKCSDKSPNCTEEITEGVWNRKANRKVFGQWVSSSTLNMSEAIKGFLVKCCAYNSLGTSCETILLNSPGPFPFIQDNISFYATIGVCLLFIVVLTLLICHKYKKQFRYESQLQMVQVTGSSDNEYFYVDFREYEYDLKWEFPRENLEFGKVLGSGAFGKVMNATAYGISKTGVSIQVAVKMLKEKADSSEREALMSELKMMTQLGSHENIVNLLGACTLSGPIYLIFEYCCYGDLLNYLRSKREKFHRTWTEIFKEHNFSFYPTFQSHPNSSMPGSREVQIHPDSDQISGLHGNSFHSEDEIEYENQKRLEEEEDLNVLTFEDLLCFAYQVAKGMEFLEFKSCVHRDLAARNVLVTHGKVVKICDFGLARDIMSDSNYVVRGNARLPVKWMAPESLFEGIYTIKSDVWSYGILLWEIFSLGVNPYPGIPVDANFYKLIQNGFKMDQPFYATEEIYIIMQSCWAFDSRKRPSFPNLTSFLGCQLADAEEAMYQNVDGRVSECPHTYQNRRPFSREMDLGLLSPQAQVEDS
Kind of test: in vitro FLT3 kinase activity test, Mobility Shift Assay. Type of test: biochemical. The following applies: compound concentration 0.1 μM; read-out: Percentage of inhibition against FLT3 at 0.1 μM. The method, then:
The in vitro JAK2 and FLT3 kinase activity test was performed on the compounds of the 2-aminopyrimidine backbone of the above formula I (concentration 0.1 μM) according to the present invention using Mobility Shift Assay.
as §1, §2

Test [1] has as its system human erythroleukemia cells HEL. The experiment in a line: anti-tumor cell proliferation activity (CCK-8), HEL. The following applies: 72 hours incubation. Type of test: cell-based. The method, then: (§3) The compound of the 2-aminopyrimidine skeleton of the above formula I according to the present invention was tested in vitro to inhibit the activity of human erythroleukemia cells HEL and human myeloid monocytic leukemia cells Molm-13. The control compounds Pacritinib and Fedratinib were prepared by our research group.
(§4) After the cells are resuscitated and passaged 2-3 times to stable state, 10 μL of the cell suspension was pipetted to a cell counting plate for counting, and the cell concentration was adjusted to 10×10^4 cells/mL. No cell solution was added to the outermost wells of the 96-well plate, and 100 μL of cell suspension was added to each of the remaining wells. 100 μL of medium was added to wells B2-B7 as a control group, and other wells were added with different concentrations of the compounds to be tested. After 72 hours of incubation in the incubator, 200 μL, of fresh medium was added to well A1 as a blank group, and then 20 µL of CCK-8 solution was added to each well, and the incubation continued for 4 hours. The 96-well plate was shaken at room temperature for 3 minutes, and then the absorbance at 450 nm wavelength was measured with a microplate reader, and the inhibition rate of cell growth was calculated according to the following formula:
(§5) Inhibition rate (%)=[(A control−A addition)/(A control−A blank)]×100
(§6) IC50 is the drug concentration required to inhibit half of the cell growth. According to the results of drug concentration and inhibition rate, GraphPad Prism version 5 software is used to calculate IC50 through the dose-effect curve.

Test [2] deals with human myeloid monocytic leukemia cells Molm-13. Kind of test: anti-tumor cell proliferation activity (CCK-8), Molm-13. Format: cell-based. The following applies: Molm-13 cells, 72 hours incubation. How it is done:
as §3, §4, §5, §6

Molecules are shown by their SMILES.

Usually inhibition stands for the percentage by which the read-out fell short of the control. Broadly, the IC50 is the concentration that gives 50% inhibition.

JAK2, sequence (O60674 whole entry): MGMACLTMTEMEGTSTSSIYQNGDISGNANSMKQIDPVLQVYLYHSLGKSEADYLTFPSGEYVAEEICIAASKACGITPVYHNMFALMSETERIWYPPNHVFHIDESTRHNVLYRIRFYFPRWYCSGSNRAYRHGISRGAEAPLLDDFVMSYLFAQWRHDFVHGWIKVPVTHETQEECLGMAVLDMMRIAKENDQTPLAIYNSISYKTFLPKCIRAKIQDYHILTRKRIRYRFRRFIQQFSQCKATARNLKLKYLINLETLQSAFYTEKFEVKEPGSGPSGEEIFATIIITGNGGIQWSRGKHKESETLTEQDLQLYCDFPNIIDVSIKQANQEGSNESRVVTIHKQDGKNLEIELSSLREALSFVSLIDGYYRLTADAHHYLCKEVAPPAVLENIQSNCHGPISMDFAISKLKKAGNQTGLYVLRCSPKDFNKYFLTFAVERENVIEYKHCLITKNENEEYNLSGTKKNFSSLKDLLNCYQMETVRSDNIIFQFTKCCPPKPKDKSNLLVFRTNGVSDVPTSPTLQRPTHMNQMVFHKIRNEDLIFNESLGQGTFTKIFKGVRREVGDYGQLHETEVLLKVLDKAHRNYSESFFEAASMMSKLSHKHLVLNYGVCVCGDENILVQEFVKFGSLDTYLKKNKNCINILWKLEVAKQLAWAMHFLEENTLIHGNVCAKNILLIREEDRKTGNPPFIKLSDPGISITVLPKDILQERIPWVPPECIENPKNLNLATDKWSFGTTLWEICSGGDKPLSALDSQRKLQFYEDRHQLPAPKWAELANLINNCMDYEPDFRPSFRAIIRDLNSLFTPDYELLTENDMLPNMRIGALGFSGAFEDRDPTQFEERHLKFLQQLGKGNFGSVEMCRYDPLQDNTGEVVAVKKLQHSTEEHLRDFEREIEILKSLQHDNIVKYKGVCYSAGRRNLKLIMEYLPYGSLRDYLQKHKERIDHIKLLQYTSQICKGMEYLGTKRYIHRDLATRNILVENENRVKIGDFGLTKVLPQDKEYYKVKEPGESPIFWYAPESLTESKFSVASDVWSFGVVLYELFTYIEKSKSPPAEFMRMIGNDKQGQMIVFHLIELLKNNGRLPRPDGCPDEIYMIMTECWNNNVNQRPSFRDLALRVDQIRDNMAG

As for `CC(=O)c1ccc(NC(=O)N2CCN(c3nc(Nc4ccc(N5CCOCC5)cc4)ncc3C)CC2)cc1` [Example 22, N-(4-acetylphenyl)-4-(5-methyl-2-{[4-(morpholin-4-yl)phenyl]amino}pyrimidin-4-yl)piperazine-1-carboxamide], the inhibition at 0.1 µM on JAK2 was 81.8%; on FLT3 it was 99.1%. In addition, the IC50 stood at 800 nM in test [1] and 42 nM in test [2].

Consider `CC(=O)c1ccc(NC(=O)N2CCN(c3nc(Nc4ccc(N5CCOCC5)cc4)ncc3C(F)(F)F)CC2)cc1` [Example 26, N-(4-acetylphenyl)-4-(5-trifluoromethyl-2-{[4-(morpholin-4-yl)phenyl]amino}pyrimidin-4-yl)piperazine-1-carboxamide], for which the inhibition at 0.1 µM at JAK2 came out at 74.6%; at FLT3 it was 82.5%. Further, the IC50 was determined as 4600 nM in test [1] and 83 nM in test [2].

As to `CC(=O)c1ccc(NC(=O)C2CCN(c3nc(Nc4ccc(N5CCOCC5)cc4)ncc3C)CC2)cc1` [Example 33, N-(4-acetylphenyl)-1-(5-methyl-2-{[4-(morpholin-4-yl)phenyl]amino}pyrimidin-4-yl)piperidine-4-carboxamide], the inhibition at 0.1 µM at JAK2 turned out to be 74.3%; at FLT3, 97%. Besides, the IC50 in test [1] was found to be 1700 nM; in test [2], 62 nM.

In the case of `Cc1cnc(Nc2ccc(N3CCOCC3)cc2)nc1N1CCN(C(=O)Nc2ccc(C#N)cc2)CC1` [Example 20, N-(4-cyanophenyl)-4-(5-methyl-2-{[4-(morpholin-4-yl)phenyl]amino}pyrimidin-4-yl)piperazine-1-carboxamide], the inhibition at 0.1 µM was determined as 88.5% on JAK2 and 95.2% at FLT3. Moreover, the IC50 in test [1] turned out to be 900 nM; in test [2], 72 nM.

Regarding `CC(=O)c1ccc(NC(=O)N2CCN(c3ccnc(Nc4ccc(N5CCOCC5)cc4)n3)CC2)cc1` [Example 6, N-(4-acetylphenyl)-4-(2-{[4-(morpholin-4-yl)phenyl]amino}pyrimidin-4-yl)piperazine-1-carboxamide], the inhibition at 0.1 µM was found to be 76.7% on JAK2 and 72.3% on FLT3. In addition, the IC50 was 4300 nM in test [1] and 77 nM in test [2].

As for `Cc1cnc(Nc2ccc(OCCN3CCCC3)cc2)nc1Nc1cccc(S(=O)(=O)NC(C)(C)C)c1` [Fedratinib, reference compound], the inhibition at 0.1 µM on JAK2 amounted to 95.2%; on FLT3 it was 88.7%. For the same compound, the figures for the IC50 in test [1] and in test [2] were 890 nM and 68 nM, respectively.

Take `CC(=O)c1ccc(NC(=O)N2CCC(Nc3nc(Nc4ccc(N5CCOCC5)cc4)ncc3C)CC2)cc1` [Example 32, N-(4-acetylphenyl)-4-[(5-methyl-2-{[4-(morpholin-4-yl)phenyl]amino}pyrimidin-4-yl)amino]piperidine-1-carboxamide]: the figures for the inhibition at 0.1 µM on JAK2 and at FLT3 were 80.5% and 78.6%, respectively. Besides, the IC50 is 6700 nM in test [1] and 350 nM in test [2].

As to `C1=C/COCc2cc(ccc2OCCN2CCCC2)Nc2nccc(n2)-c2cccc(c2)COC/1` [Pacritinib, reference compound], the inhibition at 0.1 µM at JAK2 was determined as 92%. Moreover, the IC50 in test [1] was found to be 1100 nM; in test [2], 23 nM.

With `O=C(Nc1ccc(OC(F)(F)F)cc1)N1CCN(c2ccnc(Nc3ccc(N4CCOCC4)cc3)n2)CC1` [Example 2, N-(4-trifluoromethoxyphenyl)-4-(2-{[4-(morpholin-4-yl)phenyl]amino}pyrimidin-4-yl)piperazine-1-carboxamide], the inhibition at 0.1 µM at JAK2 was 54.3%; at FLT3, 30.5%.

These data come from US20220259196A1, “2-AMINOPYRIMIDINE COMPOUND AND USES THEREOF” (Shenyang Pharmaceutical University, priority 2019, published 2022).
